# Results reported in publication PMC6658524, “Lysosomal degradation of newly formed insulin granules contributes to β cell failure in diabetes” (Nature Communications, 2019).
# Legend:
# p38γ (SAPK3) [1] = biological target: T1, p38γ (SAPK3) (Homo sapiens, UniProt P53778); assay: biochemical; parameters: Kinase inhibition by mobility shift assay (Caliper)
# T1 construct: gene MAPK12
# p38α = biological target: T2, p38α (Homo sapiens, UniProt Q16539); assay: biochemical; parameters: Kinase inhibition by mobility shift assay (Caliper)
# T2 construct: gene MAPK14
# T2 sequence (Q16539 whole entry): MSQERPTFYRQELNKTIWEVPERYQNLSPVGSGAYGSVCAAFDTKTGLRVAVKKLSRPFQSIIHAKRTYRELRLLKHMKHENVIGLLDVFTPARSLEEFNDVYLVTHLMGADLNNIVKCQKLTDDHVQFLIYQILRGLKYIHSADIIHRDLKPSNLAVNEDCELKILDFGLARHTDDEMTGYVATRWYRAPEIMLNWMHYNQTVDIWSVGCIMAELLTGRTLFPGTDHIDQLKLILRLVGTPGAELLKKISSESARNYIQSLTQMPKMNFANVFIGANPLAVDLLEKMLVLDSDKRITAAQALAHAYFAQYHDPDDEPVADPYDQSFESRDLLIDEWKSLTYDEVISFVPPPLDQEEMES
# p38γ (SAPK3) [2] = biological target: T1, p38γ (SAPK3); assay: mobility shift assay (Caliper); confirmed in 60-kinase panel, % inhibition at […]; assay type: biochemical
# mTOR = mTOR (Homo sapiens, UniProt P42345); assay: 60-kinase selectivity panel, % inhibition at […]; assay type: biochemical
# p38δ = biological target: T3, p38δ (Homo sapiens, UniProt O15264); assay: biochemical; parameters: Kinase inhibition by mobility shift assay (Caliper)
# T3 construct: gene MAPK13
# FGFR1(h) = FGFR1(h) (Homo sapiens, UniProt P11362); assay: biochemical; parameters: Eurofins KinaseProfiler panel of 60 kinases, per cent inhibition
# Text: (§1) A more detailed account of the discovery, chemistry and biochemical properties of this novel class of selective p38δ inhibitors will be given elsewhere.
# IR(h) = biological target: T4, IR(h) (Homo sapiens, UniProt P06213); assay: biochemical; parameters: Eurofins KinaseProfiler panel of 60 kinases, per cent inhibition
# T4 construct: gene INSR
# T4 sequence (P06213 whole entry): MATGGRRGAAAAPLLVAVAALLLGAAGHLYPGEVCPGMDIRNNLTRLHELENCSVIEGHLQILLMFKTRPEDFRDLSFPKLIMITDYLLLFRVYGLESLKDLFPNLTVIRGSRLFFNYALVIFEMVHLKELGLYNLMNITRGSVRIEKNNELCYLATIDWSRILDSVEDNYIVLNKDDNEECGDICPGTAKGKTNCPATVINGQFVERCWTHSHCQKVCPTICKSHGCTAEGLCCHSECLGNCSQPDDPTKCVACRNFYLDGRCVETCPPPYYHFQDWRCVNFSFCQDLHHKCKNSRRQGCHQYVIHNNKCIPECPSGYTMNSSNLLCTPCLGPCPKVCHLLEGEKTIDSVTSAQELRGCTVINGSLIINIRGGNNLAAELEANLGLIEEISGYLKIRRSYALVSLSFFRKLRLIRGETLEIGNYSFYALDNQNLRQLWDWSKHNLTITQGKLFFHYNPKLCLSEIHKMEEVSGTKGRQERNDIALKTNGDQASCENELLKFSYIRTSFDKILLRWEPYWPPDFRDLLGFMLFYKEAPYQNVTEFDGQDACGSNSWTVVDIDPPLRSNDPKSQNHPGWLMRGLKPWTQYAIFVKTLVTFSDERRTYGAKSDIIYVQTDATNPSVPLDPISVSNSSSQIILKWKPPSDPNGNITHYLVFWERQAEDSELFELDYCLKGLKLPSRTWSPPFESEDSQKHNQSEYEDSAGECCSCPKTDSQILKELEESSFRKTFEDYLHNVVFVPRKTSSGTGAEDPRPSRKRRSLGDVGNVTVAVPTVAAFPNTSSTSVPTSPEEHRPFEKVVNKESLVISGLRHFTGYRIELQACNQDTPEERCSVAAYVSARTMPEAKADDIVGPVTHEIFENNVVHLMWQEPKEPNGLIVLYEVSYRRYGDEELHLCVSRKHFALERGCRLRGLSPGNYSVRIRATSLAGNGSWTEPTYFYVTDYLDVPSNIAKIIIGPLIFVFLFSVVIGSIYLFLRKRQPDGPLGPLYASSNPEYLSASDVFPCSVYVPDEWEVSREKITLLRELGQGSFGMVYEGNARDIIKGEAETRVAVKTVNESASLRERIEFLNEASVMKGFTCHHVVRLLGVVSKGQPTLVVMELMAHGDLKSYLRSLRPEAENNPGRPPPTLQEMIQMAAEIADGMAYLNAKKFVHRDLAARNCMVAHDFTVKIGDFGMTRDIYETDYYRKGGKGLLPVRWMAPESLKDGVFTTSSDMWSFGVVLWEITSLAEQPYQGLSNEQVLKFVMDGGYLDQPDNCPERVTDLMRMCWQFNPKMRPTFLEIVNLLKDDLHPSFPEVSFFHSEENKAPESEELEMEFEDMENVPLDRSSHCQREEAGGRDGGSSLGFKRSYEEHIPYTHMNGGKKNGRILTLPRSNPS
# Text: as §1
# LRRK2(h) = LRRK2(h) (Homo sapiens, UniProt Q5S007); assay: biochemical; parameters: Eurofins KinaseProfiler panel of 60 kinases, per cent inhibition
# Text: as §1
# GSK3β(h) = biological target: T5, GSK3β(h) (Homo sapiens, UniProt P49841); assay: biochemical; parameters: Eurofins KinaseProfiler panel of 60 kinases, per cent inhibition
# T5 construct: gene GSK3B
# Text: as §1
# CaMKIIδ(h) = biological target: T6, CaMKIIδ(h) (Homo sapiens, UniProt Q13557); assay: biochemical; parameters: Eurofins KinaseProfiler panel of 60 kinases, per cent inhibition
# T6 construct: gene CAMK2D
# Text: as §1
# TrkA(h) = biological target: T7, TrkA(h) (Homo sapiens, UniProt P04629); assay: biochemical; parameters: Eurofins KinaseProfiler panel of 60 kinases, per cent inhibition
# T7 construct: gene NTRK1
# T7 sequence (P04629 whole entry): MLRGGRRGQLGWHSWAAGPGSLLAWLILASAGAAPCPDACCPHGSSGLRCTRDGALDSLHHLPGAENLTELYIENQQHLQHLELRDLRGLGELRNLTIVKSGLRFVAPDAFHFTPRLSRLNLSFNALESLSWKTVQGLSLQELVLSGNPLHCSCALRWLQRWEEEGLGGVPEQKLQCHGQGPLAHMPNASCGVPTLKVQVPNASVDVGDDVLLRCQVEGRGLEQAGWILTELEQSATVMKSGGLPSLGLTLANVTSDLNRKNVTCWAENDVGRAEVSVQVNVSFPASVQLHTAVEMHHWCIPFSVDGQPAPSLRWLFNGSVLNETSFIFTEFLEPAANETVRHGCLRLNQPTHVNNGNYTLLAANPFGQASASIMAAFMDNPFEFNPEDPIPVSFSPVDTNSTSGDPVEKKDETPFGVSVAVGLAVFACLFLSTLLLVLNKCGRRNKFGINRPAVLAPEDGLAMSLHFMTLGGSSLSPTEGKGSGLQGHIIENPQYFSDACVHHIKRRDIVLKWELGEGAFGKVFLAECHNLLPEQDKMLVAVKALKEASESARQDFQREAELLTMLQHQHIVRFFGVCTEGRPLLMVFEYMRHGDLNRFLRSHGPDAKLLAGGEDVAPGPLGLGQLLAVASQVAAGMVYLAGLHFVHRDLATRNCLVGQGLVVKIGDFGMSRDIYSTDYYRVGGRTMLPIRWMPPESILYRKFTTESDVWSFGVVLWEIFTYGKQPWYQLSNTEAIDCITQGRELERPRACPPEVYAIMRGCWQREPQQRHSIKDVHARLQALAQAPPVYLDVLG
# Text: as §1
# MST2(h) = biological target: T8, MST2(h) (Homo sapiens, UniProt Q13188); assay: biochemical; parameters: Eurofins KinaseProfiler panel of 60 kinases, per cent inhibition
# T8 construct: gene STK3
# T8 sequence (Q13188 whole entry): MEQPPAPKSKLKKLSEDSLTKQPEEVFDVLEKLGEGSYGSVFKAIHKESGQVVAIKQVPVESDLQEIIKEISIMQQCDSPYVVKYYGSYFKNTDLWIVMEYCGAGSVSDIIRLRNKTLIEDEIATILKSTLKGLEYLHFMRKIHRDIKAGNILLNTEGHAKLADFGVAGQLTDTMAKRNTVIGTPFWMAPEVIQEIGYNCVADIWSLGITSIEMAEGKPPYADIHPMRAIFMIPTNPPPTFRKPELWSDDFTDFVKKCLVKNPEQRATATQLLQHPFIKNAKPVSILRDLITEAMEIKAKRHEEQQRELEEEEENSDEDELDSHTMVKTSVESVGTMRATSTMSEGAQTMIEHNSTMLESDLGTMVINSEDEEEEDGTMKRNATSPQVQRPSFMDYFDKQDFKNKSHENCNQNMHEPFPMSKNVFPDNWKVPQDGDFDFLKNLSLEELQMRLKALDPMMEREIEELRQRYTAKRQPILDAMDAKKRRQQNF
# Text: as §1
# EphA1(h) = EphA1(h) (Homo sapiens, UniProt P21709); assay: biochemical; parameters: Eurofins KinaseProfiler panel of 60 kinases, per cent inhibition
# Text: as §1
# KDR(h) = KDR(h) (Homo sapiens, UniProt P35968); assay: biochemical; parameters: Eurofins KinaseProfiler panel of 60 kinases, per cent inhibition
# Text: as §1
# CDK9/cyclin T1(h) = CDK9/cyclin T1(h) (Homo sapiens, UniProt P50750); assay: biochemical; parameters: Eurofins KinaseProfiler panel of 60 kinases, per cent inhibition
# Chain of CDK9/cyclin T1(h) (P50750 whole entry): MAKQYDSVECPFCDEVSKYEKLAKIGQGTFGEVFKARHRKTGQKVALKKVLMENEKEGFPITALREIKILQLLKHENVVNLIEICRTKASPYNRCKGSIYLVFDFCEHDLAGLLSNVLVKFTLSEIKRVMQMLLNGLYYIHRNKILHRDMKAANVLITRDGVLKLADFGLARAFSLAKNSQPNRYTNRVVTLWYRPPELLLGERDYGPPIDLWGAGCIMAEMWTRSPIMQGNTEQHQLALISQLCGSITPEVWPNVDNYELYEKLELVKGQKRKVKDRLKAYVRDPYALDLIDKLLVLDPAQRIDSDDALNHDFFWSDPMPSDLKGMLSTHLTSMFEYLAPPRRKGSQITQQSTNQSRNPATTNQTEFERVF
# Chain of CDK9/cyclin T1(h) (O60563 whole entry partner): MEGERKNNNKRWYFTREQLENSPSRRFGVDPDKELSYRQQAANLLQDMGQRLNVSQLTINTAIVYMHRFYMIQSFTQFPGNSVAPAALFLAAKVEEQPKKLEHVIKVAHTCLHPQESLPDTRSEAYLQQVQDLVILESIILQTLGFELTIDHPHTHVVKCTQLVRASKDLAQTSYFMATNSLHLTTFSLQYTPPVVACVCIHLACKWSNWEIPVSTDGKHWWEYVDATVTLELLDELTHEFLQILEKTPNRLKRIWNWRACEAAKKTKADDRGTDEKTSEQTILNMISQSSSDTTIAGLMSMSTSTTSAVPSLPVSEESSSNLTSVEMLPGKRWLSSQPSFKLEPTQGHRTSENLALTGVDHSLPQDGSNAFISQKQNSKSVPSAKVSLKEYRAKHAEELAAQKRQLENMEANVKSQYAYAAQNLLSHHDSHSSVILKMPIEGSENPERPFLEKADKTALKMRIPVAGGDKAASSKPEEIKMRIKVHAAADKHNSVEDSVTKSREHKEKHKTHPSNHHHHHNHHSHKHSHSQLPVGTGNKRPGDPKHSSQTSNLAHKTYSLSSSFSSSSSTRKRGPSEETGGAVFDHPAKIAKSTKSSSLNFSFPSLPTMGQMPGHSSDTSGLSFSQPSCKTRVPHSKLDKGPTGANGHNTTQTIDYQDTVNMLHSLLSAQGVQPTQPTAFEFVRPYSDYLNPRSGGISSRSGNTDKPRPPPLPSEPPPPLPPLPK
# Text: as §1
# PDGFRα(h) = biological target: T9, PDGFRα(h) (Homo sapiens, UniProt P16234); assay: biochemical; parameters: Eurofins KinaseProfiler panel of 60 kinases, per cent inhibition
# T9 construct: gene PDGFRA
# Text: as §1
# Aurora-B(h) = biological target: T10, Aurora-B(h) (Homo sapiens, UniProt Q96GD4); assay: biochemical; parameters: Eurofins KinaseProfiler panel of 60 kinases, per cent inhibition
# T10 construct: gene AURKB
# T10 sequence (Q96GD4 whole entry): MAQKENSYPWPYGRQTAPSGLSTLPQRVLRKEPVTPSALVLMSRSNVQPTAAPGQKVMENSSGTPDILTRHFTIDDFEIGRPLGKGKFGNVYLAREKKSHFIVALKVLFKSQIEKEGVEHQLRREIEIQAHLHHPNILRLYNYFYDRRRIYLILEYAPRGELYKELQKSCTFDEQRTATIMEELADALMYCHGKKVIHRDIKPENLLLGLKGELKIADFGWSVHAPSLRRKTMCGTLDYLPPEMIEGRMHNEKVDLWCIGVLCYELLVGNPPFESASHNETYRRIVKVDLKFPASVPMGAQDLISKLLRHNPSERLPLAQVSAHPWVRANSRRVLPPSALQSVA
# Text: as §1
# CaMKI(h) = biological target: T11, CaMKI(h) (Homo sapiens, UniProt Q14012); assay: biochemical; parameters: Eurofins KinaseProfiler panel of 60 kinases, per cent inhibition
# T11 construct: gene CAMK1
# Text: as §1
# PEK(h) = biological target: T12, PEK(h) (Homo sapiens, UniProt Q9NZJ5); assay: biochemical; parameters: Eurofins KinaseProfiler panel of 60 kinases, per cent inhibition
# T12 construct: gene EIF2AK3
# Text: as §1
# cSRC(h) = biological target: T13, cSRC(h) (Homo sapiens, UniProt P12931); assay: biochemical; parameters: Eurofins KinaseProfiler panel of 60 kinases, per cent inhibition
# T13 construct: gene SRC
# Text: as §1
# Rsk1(h) = biological target: T14, Rsk1(h) (Homo sapiens, UniProt Q15418); assay: biochemical; parameters: Eurofins KinaseProfiler panel of 60 kinases, per cent inhibition
# T14 construct: gene RPS6KA1
# Text: as §1
# EGFR(h) = EGFR(h) (Homo sapiens, UniProt P00533); assay: biochemical; parameters: Eurofins KinaseProfiler panel of 60 kinases, per cent inhibition
# Text: as §1
# PKBα(h) = biological target: T15, PKBα(h) (Homo sapiens, UniProt P31749); assay: biochemical; parameters: Eurofins KinaseProfiler panel of 60 kinases, per cent inhibition
# T15 construct: gene AKT1
# T15 sequence (P31749 whole entry): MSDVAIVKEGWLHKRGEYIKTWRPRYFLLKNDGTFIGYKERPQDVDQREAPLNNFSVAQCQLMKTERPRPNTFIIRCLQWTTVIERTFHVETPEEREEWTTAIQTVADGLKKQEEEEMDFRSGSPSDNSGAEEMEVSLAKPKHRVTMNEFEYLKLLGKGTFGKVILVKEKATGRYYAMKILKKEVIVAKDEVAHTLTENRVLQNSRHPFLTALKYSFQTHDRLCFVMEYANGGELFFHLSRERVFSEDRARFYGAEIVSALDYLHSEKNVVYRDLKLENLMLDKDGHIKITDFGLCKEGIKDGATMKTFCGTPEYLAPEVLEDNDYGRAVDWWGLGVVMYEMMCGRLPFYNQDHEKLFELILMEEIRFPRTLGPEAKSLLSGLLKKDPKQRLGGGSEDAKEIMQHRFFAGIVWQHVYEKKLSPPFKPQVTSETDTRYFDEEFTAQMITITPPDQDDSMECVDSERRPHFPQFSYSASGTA
# Text: as §1
# SAPK2a(h) = biological target: T16, SAPK2a(h) (Homo sapiens, UniProt Q16539); assay: biochemical; parameters: Eurofins KinaseProfiler panel of 60 kinases, per cent inhibition
# T16 construct: gene MAPK14
# T16 sequence (Q16539 whole entry): as the sequence (Q16539 whole entry) above
# Text: as §1
# ALK(h) = ALK(h) (Homo sapiens, UniProt Q9UM73); assay: biochemical; parameters: Eurofins KinaseProfiler panel of 60 kinases, per cent inhibition
# Text: as §1
# p70S6K = biological target: T17, p70S6K (Homo sapiens, UniProt P23443); assay: 60-kinase selectivity panel, % inhibition at […]; assay type: biochemical
# T17 construct: gene RPS6KB1
structure (smiles),measurement,setting,value
CCN1CCOc2nc(N3CCOCC3)nc(-c3ccc(NC(=O)OC)cc3)c2C1=O [Compound A],IC50,p38γ (SAPK3) [1],710 nM
same,IC50,p38α,> 30000 nM
same,% inhibition at 10 μM,p38γ (SAPK3) [2],64
same,% inhibition at 10 μM,mTOR,48
same,IC50,p38δ,380 nM
same,inhibition at 1 µM,FGFR1(h),9%
same,inhibition at 10 µM,FGFR1(h),6%
same,inhibition at 1 µM,IR(h),-21%
same,inhibition at 10 µM,IR(h),-14%
same,inhibition at 1 µM,LRRK2(h),-18%
same,inhibition at 10 µM,LRRK2(h),-11%
same,inhibition at 1 µM,GSK3β(h),1%
same,inhibition at 10 µM,GSK3β(h),12%
same,inhibition at 1 µM,CaMKIIδ(h),-6%
same,inhibition at 10 µM,CaMKIIδ(h),1%
same,inhibition at 1 µM,TrkA(h),-21%
same,inhibition at 10 µM,TrkA(h),5%
same,inhibition at 1 µM,MST2(h),-16%
same,inhibition at 10 µM,MST2(h),-2%
same,inhibition at 1 µM,EphA1(h),0%
same,inhibition at 10 µM,EphA1(h),7%
same,inhibition at 1 µM,KDR(h),-16%
same,inhibition at 10 µM,KDR(h),-12%
same,inhibition at 1 µM,CDK9/cyclin T1(h),-16%
same,inhibition at 10 µM,CDK9/cyclin T1(h),3%
same,inhibition at 1 µM,PDGFRα(h),1%
same,inhibition at 10 µM,PDGFRα(h),0%
same,inhibition at 1 µM,Aurora-B(h),-24%
same,inhibition at 10 µM,Aurora-B(h),-28%
same,inhibition at 1 µM,CaMKI(h),5%
same,inhibition at 10 µM,CaMKI(h),11%
same,inhibition at 1 µM,PEK(h),-12%
same,inhibition at 10 µM,PEK(h),-11%
same,inhibition at 1 µM,cSRC(h),-9%
same,inhibition at 10 µM,cSRC(h),-12%
same,inhibition at 1 µM,Rsk1(h),-11%
same,inhibition at 10 µM,Rsk1(h),5%
same,inhibition at 1 µM,EGFR(h),-17%
same,inhibition at 10 µM,EGFR(h),4%
same,inhibition at 1 µM,PKBα(h),14%
same,inhibition at 10 µM,PKBα(h),17%
same,inhibition at 1 µM,SAPK2a(h),-16%
same,inhibition at 10 µM,SAPK2a(h),9%
same,inhibition at 1 µM,ALK(h),4%
same,inhibition at 10 µM,ALK(h),0%
same,% inhibition at 10 μM,p70S6K,59
